Data published in PubChem BioAssay AID328 (DTP/NCI, 2004).
Where “and” joins values, the source holds several entries; their conditions need not be identical. Identical values can stand only once. Inconclusive results and toxic doses are left out.

System: BDF1 mice, P388 leukemia ip, median survival T/C
Test: NCI In Vivo Anticancer Drug Screen. Data for tumor model P388 Leukemia (intraperitoneal) in B6D2F1 (BDF1) mice
Conditions: endpoint: median survival time, higher = longer survival
Procedure, shortened: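 Steps: implant the tumour, treat one group with compound and another with vehicle, record survival, then divide treated by control.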

[1] = dose: 75.0 mg/kg/injection, schedule: Q01DX009 (ip), vehicle: Klucel (hydroxypropylcellulose) (HPC)
[2] = dose: 150.0 mg/kg/injection, schedule: Q01DX009 (ip), vehicle: Klucel (hydroxypropylcellulose) (HPC)
[3] = dose: 300.0 mg/kg/injection, schedule: Q01DX009 (ip), vehicle: Klucel (hydroxypropylcellulose) (HPC)
[4] = dose: 400.0 mg/kg/injection, schedule: Q01DX009 (ip), vehicle: saline
[5] = dose: 100.0 mg/kg/injection, schedule: Q04DX003 (ip), vehicle: saline with Tween-80
[6] = dose: 200.0 mg/kg/injection, schedule: Q04DX003 (ip), vehicle: saline with Tween-80
[7] = dose: 400.0 mg/kg/injection, schedule: Q04DX003 (ip), vehicle: saline with Tween-80
[8] = dose: 25.0 mg/kg/injection, schedule: Q01DX009 (ip), vehicle: water
[9] = dose: 50.0 mg/kg/injection, schedule: Q01DX009 (ip), vehicle: water
[10] = dose: 50.0 mg/kg/injection, schedule: Q04DX003 (ip), vehicle: water
[11] = dose: 100.0 mg/kg/injection, schedule: Q01DX009 (ip), vehicle: water
[12] = dose: 100.0 mg/kg/injection, schedule: Q04DX003 (ip), vehicle: water
[13] = dose: 6.25 mg/kg/injection, schedule: Q01DX009 (ip), vehicle: saline with Tween-80
[14] = dose: 25.0 mg/kg/injection, schedule: Q04DX003 (ip), vehicle: saline
[15] = dose: 50.0 mg/kg/injection, schedule: Q01DX009 (ip), vehicle: saline
[16] = dose: 50.0 mg/kg/injection, schedule: Q04DX003 (ip), vehicle: saline
[17] = dose: 100.0 mg/kg/injection, schedule: Q01DX009 (ip), vehicle: saline
[18] = dose: 100.0 mg/kg/injection, schedule: Q04DX003 (ip), vehicle: saline
[19] = dose: 200.0 mg/kg/injection, schedule: Q01DX009 (ip), vehicle: saline
[20] = dose: 200.0 mg/kg/injection, schedule: Q04DX003 (ip), vehicle: saline

O=c1cnn(C2OC(CO)C(O)C2O)c(=O)[nH]1 (stereo not given)
T/C (dose: 12.5 mg/kg/injection, schedule: Q01DX009 (ip), vehicle: Klucel (hydroxypropylcellulose) (HPC)): 108 % of control and 115 % of control | T/C (dose: 25.0 mg/kg/injection, schedule: Q01DX009 (ip), vehicle: Klucel (hydroxypropylcellulose) (HPC)): 123 % of control | T/C [1]: 112 % of control | T/C [2]: 106 % of control | T/C (dose: 180.0 mg/kg/injection, schedule: Q01DX009 (ip), vehicle: saline): 111 % of control | T/C (dose: 200.0 mg/kg/injection, schedule: Q01DX010 (ip), vehicle: saline): 116 % of control and 122 % of control | T/C (dose: 268.0 mg/kg/injection, schedule: Q01DX009 (ip), vehicle: saline): 111 % of control | T/C [3]: 106 % of control | T/C [4]: 117 % of control | T/C (dose: 400.0 mg/kg/injection, schedule: Q01DX010 (ip), vehicle: saline): 154 % of control | T/C (dose: 600.0 mg/kg/injection, schedule: Q01DX009 (ip), vehicle: saline): 109 % of control | T/C (dose: 1200.0 mg/kg/injection, schedule: Q01DX009 (ip), vehicle: Klucel (hydroxypropylcellulose) (HPC)): 91 % of control | T/C (dose: 1600.0 mg/kg/injection, schedule: Q01DX010 (ip), vehicle: saline): 100 % of control

COc1cc(OC)c(OC)cc1/C=C/c1ccc2ccccc2n1
T/C [5]: 100 % of control | T/C [6]: 88 % of control | T/C [7]: 88 % of control

FC(F)(F)c1ccc(C=Nc2ccc(Oc3ccccc3)cc2)cc1
T/C (dose: 50.0 mg/kg/injection, schedule: Q01DX009 (ip), vehicle: saline with Tween-80): 98 % of control | T/C (dose: 100.0 mg/kg/injection, schedule: Q01DX009 (ip), vehicle: saline with Tween-80): 100 % of control | T/C (dose: 200.0 mg/kg/injection, schedule: Q01DX009 (ip), vehicle: saline with Tween-80): 91 % of control

FC(F)(F)C1=NC(=S)C(c2[nH]c(C(F)(F)F)nc2S)=N1
T/C (dose: 3.12 mg/kg/injection, schedule: Q01DX009 (ip), vehicle: water): 91 % of control | T/C (dose: 6.25 mg/kg/injection, schedule: Q01DX009 (ip), vehicle: water): 99 % of control | T/C (dose: 12.5 mg/kg/injection, schedule: Q01DX009 (ip), vehicle: water): 108 % of control | T/C (dose: 12.5 mg/kg/injection, schedule: Q04DX003 (ip), vehicle: water): 89 % of control and 107 % of control | T/C [8]: 103 % of control | T/C (dose: 25.0 mg/kg/injection, schedule: Q04DX003 (ip), vehicle: water): 95 % of control and 100 % of control | T/C [9]: 112 % of control | T/C [10]: 89 % of control and 100 % of control | T/C [11]: 110 % of control | T/C [12]: 89 % of control and 105 % of control

CSc1nc(NN(C)C)c2[nH]c(C)nc2n1
T/C (dose: 0.78 mg/kg/injection, schedule: Q01DX009 (ip), vehicle: saline with Tween-80): 97 % of control | T/C (dose: 1.56 mg/kg/injection, schedule: Q01DX009 (ip), vehicle: saline with Tween-80): 116 % of control | T/C (dose: 3.13 mg/kg/injection, schedule: Q01DX009 (ip), vehicle: saline with Tween-80): 111 % of control | T/C [13]: 87 % of control

COc1ccccc1C(=O)NS(=O)(=O)c1ccc(Cl)cc1
T/C (dose: 50.0 mg/kg/injection, schedule: Q01DX009 (ip), vehicle: Klucel (hydroxypropylcellulose) (HPC)): 105 % of control | T/C (dose: 100.0 mg/kg/injection, schedule: Q01DX009 (ip), vehicle: Klucel (hydroxypropylcellulose) (HPC)): 110 % of control | T/C (dose: 200.0 mg/kg/injection, schedule: Q01DX009 (ip), vehicle: Klucel (hydroxypropylcellulose) (HPC)): 120 % of control

COC(=O)C(C)C(C)=O (stereo not given)
T/C (dose: 100.0 mg/kg/injection, schedule: Q04DX003 (sc), vehicle: olive oil, sesame oil, peanut oil): 100 % of control | T/C (dose: 200.0 mg/kg/injection, schedule: Q04DX003 (sc), vehicle: olive oil, sesame oil, peanut oil): 104 % of control | T/C (dose: 400.0 mg/kg/injection, schedule: Q04DX003 (sc), vehicle: olive oil, sesame oil, peanut oil): 100 % of control

O=c1[nH]c(=O)[nH]c(=O)[nH]1
T/C [1]: 120 % of control | T/C [2]: 120 % of control | T/C [3]: 110 % of control

CCCC(O)C1CCCCC1O (stereo not given)
T/C [5]: 100 % of control | T/C [6]: 100 % of control | T/C [7]: 100 % of control

O=S1(=O)CC(O)C(Cl)C1 (stereo not given)
T/C (dose: 100.0 mg/kg/injection, schedule: Q01DX001 (ip), vehicle: saline): 104 % of control | T/C (dose: 100.0 mg/kg/injection, schedule: Q04DX003 (ip), vehicle: Klucel (hydroxypropylcellulose) (HPC)): 100 % of control | T/C (dose: 200.0 mg/kg/injection, schedule: Q01DX001 (ip), vehicle: saline): 100 % of control | T/C (dose: 200.0 mg/kg/injection, schedule: Q04DX003 (ip), vehicle: Klucel (hydroxypropylcellulose) (HPC)): 100 % of control | T/C (dose: 400.0 mg/kg/injection, schedule: Q04DX003 (ip), vehicle: Klucel (hydroxypropylcellulose) (HPC)): 100 % of control

COc1ccc(/C=C/C(=O)c2ccc(OC)c(OCc3ccccc3)c2)cc1OC
T/C [8]: 97 % of control | T/C [9]: 100 % of control and 121 % of control | T/C [10]: 100 % of control | T/C [11]: 100 % of control and 111 % of control | T/C [12]: 94 % of control | T/C (dose: 200.0 mg/kg/injection, schedule: Q01DX009 (ip), vehicle: water): 95 % of control and 101 % of control | T/C (dose: 200.0 mg/kg/injection, schedule: Q04DX003 (ip), vehicle: water): 86 % of control | T/C (dose: 400.0 mg/kg/injection, schedule: Q01DX009 (ip), vehicle: water): 97 % of control | T/C (dose: 400.0 mg/kg/injection, schedule: Q04DX003 (ip), vehicle: water): 88 % of control | T/C (dose: 600.0 mg/kg/injection, schedule: Q01DX009 (ip), vehicle: water): 91 % of control

CC1=C(C)C(=O)c2c(OC(=O)c3ccccc3)ccc(OC(=O)c3ccccc3)c2C1=O
T/C (dose: 6.25 mg/kg/injection, schedule: Q04DX003 (ip), vehicle: saline): 102 % of control | T/C (dose: 12.5 mg/kg/injection, schedule: Q04DX003 (ip), vehicle: saline): 103 % of control | T/C (dose: 25.0 mg/kg/injection, schedule: Q01DX009 (ip), vehicle: saline): 92 % of control | T/C [14]: 94 % of control | T/C [15]: 101 % of control | T/C [16]: 99 % of control | T/C [17]: 92 % of control | T/C [18]: 94 % of control | T/C [19]: 91 % of control | T/C [4]: 89 % of control

CC1=NC(C(=O)O)C(=O)O1 (stereo not given)
T/C [15]: 109 % of control | T/C [17]: 104 % of control | T/C [18]: 95 % of control | T/C [19]: 100 % of control | T/C [20]: 100 % of control | T/C (dose: 400.0 mg/kg/injection, schedule: Q04DX003 (ip), vehicle: saline): 87 % of control

CCOC(=O)c1nc(NC)sc1N
T/C [14]: 97 % of control | T/C [16]: 100 % of control | T/C [18]: 105 % of control | T/C [20]: 96 % of control

CC(C)(C)OC(=O)N/N=C1\CC2CCC1C2 (stereo not given)
T/C [13]: 96 % of control | T/C (dose: 12.5 mg/kg/injection, schedule: Q01DX009 (ip), vehicle: saline with Tween-80): 96 % of control | T/C (dose: 13.75 mg/kg/injection, schedule: Q04DX003 (ip), vehicle: Klucel (hydroxypropylcellulose) (HPC)): 95 % of control | T/C (dose: 25.0 mg/kg/injection, schedule: Q01DX009 (ip), vehicle: saline with Tween-80): 100 % of control | T/C (dose: 27.5 mg/kg/injection, schedule: Q04DX003 (ip), vehicle: Klucel (hydroxypropylcellulose) (HPC)): 100 % of control | T/C (dose: 35.0 mg/kg/injection, schedule: Q01DX009 (ip), vehicle: Klucel (hydroxypropylcellulose) (HPC)): 105 % of control | T/C (dose: 55.0 mg/kg/injection, schedule: Q01DX009 (ip), vehicle: Klucel (hydroxypropylcellulose) (HPC)): 100 % of control | T/C (dose: 55.0 mg/kg/injection, schedule: Q04DX003 (ip), vehicle: Klucel (hydroxypropylcellulose) (HPC)): 100 % of control | T/C (dose: 80.0 mg/kg/injection, schedule: Q04DX003 (ip), vehicle: Klucel (hydroxypropylcellulose) (HPC)): 105 % of control | T/C (dose: 125.0 mg/kg/injection, schedule: Q04DX003 (ip), vehicle: Klucel (hydroxypropylcellulose) (HPC)): 110 % of control
